Experiments:
MDA-MB-435S = test: Cell viability assay (CellTiter Glo), melanoma cell line MDA-MB-435S; assay type: cell-based; details: Homo sapiens, 96 hours
Description: (§1) Cell viability assay was performed to assess the potency of the compounds in human cancer cell lines KP4 (pancreatic ductal adenocarcinoma), MiaPaCa-2 (pancreatic carcinoma), AsPC-1 (pancreatic adenocarcinoma, ascites), 143B (osteosarcoma), and SJSA-1 (osteosarcoma). Selected compounds were also assayed in a human breast epithelial cell line MCF-10A, a nontumorigenic cell line as a control to assess differential activity. Cells at a density of 500-5,000 cells/well were seeded in 96-well plates and incubated at 37° C. overnight. A series of 9 different concentrations of compound stocks (500×) were created by 3-fold serial dilution in DMSO. These compounds were further diluted in culture media and then added to cells so that the final DMSO concentration was equal to 0.25% or less. After 96 hours of incubation, 50 μL of CellTiter Glo reagent (Promega) was added to each well and luminescence was measured after 10 minutes using EnVision (PerkinElmer). Compounds titrated from top concentration of up to 30 μM. The select compounds were tested initially from 30 μM as the top concentration in duplicates (range of 4.6 nM-30 μM). […] Luminescence from cells treated with DMSO alone was set as Max and % of inhibition was calculated as follows: Inhibition %=(Max-Sample value)/Max*100. Data was analyzed using XL-fit software (ID Business Solutions Ltd.). IC50, relative IC50, or % of top inhibition was calculated.
(§2) A group of selected analogs were further profiled in cell viability assays described above in multiple additional cancer cell lines, including lung cancer, melanoma, hepatocarcinoma, pancreatic cancer, leukemia, lymphoma, ovarian cancer, breast cancer, colon cancer, and sarcoma cell lines. Initial cell seeding numbers were adjusted for each cell line. Typically, 500-5000 cells/well for adherent cells and 5000-10000/well for suspension cells were seeded in 96-well plates.

SK-OV-3 = test: Cell viability assay (CellTiter Glo), ovarian cancer cell line SK-OV-3; assay type: cell-based; details: Homo sapiens, 96 hours
Description: as §1, §2

HT-1080 luc2 = test: Cell viability assay (CellTiter Glo), fibrosarcoma HT-1080 luc2; assay type: cell-based; details: Homo sapiens, fibrosarcoma expressing a luciferase gene, 96 hours, CellTiter Glo, read-out: IC50 HT-1080 luc2
Description: as §1, §2
The results of the assay in sarcoma cell lines are given in Table 21a for HT-1080 luc2 (fibrosarcoma expressing a luciferase gene), Table 21b for 143B (osteosarcoma), and Table 21c for SJSA-1 (osteosarcoma).

REC-1 = test: Cell viability assay (CellTiter Glo), lymphoma cell line REC-1; assay type: cell-based; details: Homo sapiens, Rec1, 96 hours
Description: as §1, §2

Huh7 = test: Cell viability assay (CellTiter Glo), hepatocellular carcinoma Huh7; assay type: cell-based; details: Homo sapiens, Huh-7, 96 hours
Description: as §1, §2

HCC1954 = test: Cell viability assay (CellTiter Glo), breast cancer cell line HCC1954; assay type: cell-based; details: Homo sapiens, 96 hours
Description: as §1, §2

PANC1 = test: Cell viability assay (CellTiter Glo), pancreatic cell line PANC1; assay type: cell-based; details: Homo sapiens, PANC-1, 96 hours
Description: as §1, §2
The results of the assay in the pancreatic cell lines are given in Table 15a for PANC1, Table 15b for MiaPaCa-2, and Table 15c for AsPC-1.

MV-4-1 = test: Cell viability assay (CellTiter Glo), leukemia cell line MV-4-1; assay type: cell-based; details: 96 hours
Description: as §1, §2
The results of the assay in the leukemia cell lines are given in Table 16a for MV-4-1 and Table 16b for HL-60 and Kasumi-1.

H1299 = test: Cell viability assay (CellTiter Glo), lung cancer cell line H1299; assay type: cell-based; details: Homo sapiens, NCI-H1299, 96 hours
Description: as §1, §2

HT29 = test: Cell viability assay (CellTiter Glo), colon cancer cell line HT29; assay type: cell-based; details: Homo sapiens, HT-29, 96 hours
Description: as §1, §2

H2228 = test: Cell viability assay (CellTiter Glo), lung cancer cell line H2228; assay type: cell-based; details: Homo sapiens, NCI-H2228; lung cancer cell line, 96 hours, CellTiter Glo; read-out: IC50 H2228
Description: as §1, §2

MCF-10A = test: Cell viability assay (CellTiter Glo), non-tumorigenic breast epithelial cell line MCF-10A; assay type: cell-based; details: Homo sapiens, 96 hours
How it was run: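 MCF-10A cells (500-5,000/well) treated 96 h at 37° C with 9-point 3-fold dilutions from up to 30 μM, ≤0.25% DMSO, in duplicate. Viability by CellTiter Glo luminescence; % inhibition versus DMSO-only wells gave IC50, relative IC50 or % top inhibition. Paclitaxel positive control.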

Raji = test: Cell viability assay (CellTiter Glo), lymphoma cell line Raji; assay type: cell-based; details: Homo sapiens, 96 hours
Description: as §1, §2

[1] = mouse, ip, 15 mg/kg
Description: (§3) Test compounds were dissolved either in 20% (w/w) sulfobutylether-β-cyclodextrin (SBECD) pH 3-7 aqueous solution, or 5% DMSO/(30-50%) PEG400/(65-45%) water. Test compound dosing solutions were administered intraperitoneally to Balb/c nude male mice. Blood samples were collected at various time points with EDTA-K2 as anti-coagulant on ice, and centrifuged to obtain plasma samples. The plasma samples were stored at −20° C. until analysis.
(§4) Into 10 μL of test compound plasma samples were added 2 μL DMSO then 200 μL of 5 ng/mL internal standard (VTSD) (Terfenadine) in MeOH/acetonitrile. The mixture was vortexed for 1 minute and centrifuged at 4000 rpm for 15 minutes. Calibration standards were prepared by spiking known amount of test compounds into blank plasma samples. The supernatant solution was diluted 5 times with Acetonitrile/H2O (with 0.1% formic acid, 1:1, v/v), and this is the solution for LC-MS/MS analysis. The limit of quantification (LOQ) was 1 ng/mL.
(§5) Typical HPLC mobile phases were mobile phase of 5 mM NH4OAc (with 0.05% formic acid); and mobile phase B of acetonitrile (with 0.1% formic acid). The HPLC column was Kinetex C18 (30 mm×3.00 mm). Mass spectrometer was tuned for each compound in the Multiple Reaction Monitoring (MRM) scanning mode and in the electrospray ionization mode. The lower limit of quantification was 1-10 ng.
(§6) In this study, K601 (RSL3) was formulated in 5% DMSO/30% PEG 400/65% water at 1.5 mg/mL. The volume of injection via intraperitoneal route was 10 mL/kg for a dose of 15 mg/kg. […] The limit of quantification (LOQ) was 1 ng/mL.
(§7) In this study, the compound was formulated in 20% (w/w) sulfobutylether-β-cyclodextrin (SBECD), pH 5 aqueous solution at 1.5 mg/mL. The volume of injection via intraperitoneal route was 10 mL/kg for a dose of 15 mg/kg. The concentration of test compounds in plasma were analyzed by LC-MS with the method described above. The limit of quantification was 1 ng/mL.
(§8) It was formulated in 5% DMSO/50% PEG400/45% Water pH adjusted to 4 with HCl as an aqueous solution at 1.0 mg/mL. The volume of injection via intraperitoneal route was 15 mL/kg for a dose of 15 mg/kg. The concentration of test compounds in plasma were analyzed by LC-MS with the method described above. The limit of quantification was 1 ng/mL. […] The limit of quantification was 1 ng/mL.
(§9) Compounds 24 and 28 were formulated in 20% (w/w) sulfobutylether-β-cyclodextrin (SBECD) with pH 3 and pH 4, respectively, as an aqueous solution at 1.0 mg/mL. Compound 67 was in 5% DMSO/50% PEG 400/45% water pH 4 (adjusted with 12 N HCl) aqueous solution at 1.0 mg/mL. The injection volume via intraperitoneal route was 10 mL/kg for a dose of 15 mg/kg. The concentration of test compounds in plasma were analyzed by LC-MS with the method described above. The limit of quantification was 1 ng/mL.

MiaPaCa-2 = test: Cell viability assay (CellTiter Glo), pancreatic carcinoma MiaPaCa-2; assay type: cell-based; details: Homo sapiens, MIA PaCa-2; pancreatic carcinoma, 96 hours, CellTiter Glo; read-out: IC50 MiaPaCa-2
How it was run: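 MiaPaCa-2 and AsPC-1 cells were seeded overnight at 37 °C and exposed for 96 h to 9-point, 3-fold dilutions from up to 30 μM (final DMSO ≤0.25%). CellTiter Glo luminescence was read, and inhibition was calculated relative to DMSO-only cells. IC50, relative IC50 or % top inhibition was derived.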

[2] = Pharmacokinetic (PK) studies in Balb/C nude mice via intraperitoneal injection; details: male, Balb/c nude, mouse, plasma, ip, 15 mg/kg, Calculated Concentration, IP 15 mg/kg, Balb/C nude mice
Description: as §3, §4, §5, §6, §7, §8, §9

Row | SMILES | IC50 (MDA-MB-435S) | IC50 (SK-OV-3) | IC50 (HT-1080 luc2) | IC50 (REC-1) | IC50 (Huh7) | IC50 (HCC1954) | IC50 (PANC1) | IC50 (MV-4-1) | IC50 (H1299) | IC50 (HT29) | IC50 (H2228) | IC50 (MCF-10A) | IC50 (Raji) | further results
1 | C[C@H]1Cc2c([nH]c3ccccc23)[C@H](c2ccc(C3CCCC3)cc2)N1C(=O)CCl [Example 109] | 17 nM | 63 nM | 19 nM | 106 nM | 43 nM | 108 nM | 69 nM | 168 nM | 32 nM | 174 nM | 57 nM | 1140 nM | 38 nM | –
2 | COC(=O)c1ccc([C@@H]2c3[nH]c4ccc(Cl)cc4c3C[C@H](C(=O)OC)N2C(=O)CCl)cc1 [Example 94] | 9 nM | 18 nM | 8 nM | 29 nM | 26 nM | 68 nM | 47 nM | 83 nM | 5 nM | 110 nM | 19 nM | 460 nM | 9 nM | –
3 | C[C@H]1Cc2c([nH]c3ccccc23)[C@H](c2ccc(C3CCOCC3)cc2)N1C(=O)CCl [Example 112] | 30 nM | 102 nM | 24 nM | 140 nM | 81 nM | 101 nM | 81 nM | 270 nM | 38 nM | 198 nM | 66 nM | – | 46 nM | –
4 | COC(=O)c1ccc([C@H]2c3[nH]c4ccc(OC)cc4c3C[C@H](C)N2C(=O)CCl)cc1 [Example 113] | 48 nM | 146 nM | 69 nM | 222 nM | 157 nM | 200 nM | 214 nM | 532 nM | 79 nM | 494 nM | 145 nM | – | 81 nM | –
5 | CC[C@H]1Cc2c([nH]c3ccccc23)[C@H](c2ccc(C(=O)OC)cc2)N1C(=O)CCl [Example 98] | 7 nM | 30 nM | 9 nM | 61 nM | 27 nM | 63 nM | 43 nM | 65 nM | 6 nM | 94 nM | 17 nM | 920 nM | 20 nM | –
6 | C[C@H]1Cc2c([nH]c3ccccc23)[C@H](c2ccc(C3CCCCC3)cc2)N1C(=O)CCl [Example 110] | 14 nM | 53 nM | 17 nM | 96 nM | 35 nM | 101 nM | 72 nM | 164 nM | 30 nM | 112 nM | 51 nM | – | 33 nM | –
7 | C[C@H]1Cc2c([nH]c3ccccc23)[C@H](c2ccc(S(=O)(=O)N[C@]34CC5C[C@H](C[C@H](C5)C3)C4)cc2)N1C(=O)CCl [Example 101] | 36 nM | 114 nM | 39 nM | 191 nM | 72 nM | 613 nM | 169 nM | 174 nM | 38 nM | 403 nM | 163 nM | 1070 nM | 75 nM | –
8 | COC(=O)c1ccc([C@H]2c3[nH]c4ccccc4c3C[C@H](C(=O)O)N2C(=O)CCl)cc1 [Example 3] | – | – | – | – | – | – | – | – | – | – | – | – | – | detection in vivo of hydrolyzed products of K601 (RSL3) [1]: detected
9 | O=C(O)c1ccc([C@H]2c3[nH]c4ccccc4c3C[C@H](C(=O)O)N2C(=O)CCl)cc1 [Example 5] | – | – | – | – | – | – | – | – | – | – | – | – | – | detection in vivo of hydrolyzed products of K601 (RSL3) [1]: detected
10 | C[C@H]1Cc2c([nH]c3ccccc23)[C@H](c2ccc([Si](C)(C)C)cc2)N1C(=O)CCl [Example 106] | 17 nM | 87 nM | 11 nM | 156 nM | 28 nM | 120 nM | 55 nM | 170 nM | 7 nM | 189 nM | 55 nM | – | 31 nM | –
11 | COC(=O)[C@H]1Cc2c([nH]c3ccccc23)[C@H](c2ccc(C(=O)O)cc2)N1C(=O)CCl [Example 4] | – | – | – | – | – | – | – | – | – | – | – | – | – | detection in vivo of hydrolyzed products of K601 (RSL3) [1]: detected
12 | C[C@H]1Cc2c([nH]c3ccccc23)[C@H](c2ccc(C(=O)N[C@]34CC5C[C@H](C[C@H](C5)C3)C4)cc2)N1C(=O)CCl [Example 102] | 4 nM | 13 nM | 4 nM | 31 nM | 11 nM | 38 nM | 30 nM | 23 nM | 3 nM | 48 nM | 9 nM | 220 nM | 10 nM | –
13 | C[C@H]1Cc2c([nH]c3ccccc23)[C@H](c2ccc(N3CCOCC3)cc2)N1C(=O)CCl [Example 103] | 38 nM | 113 nM | 28 nM | 186 nM | 84 nM | 137 nM | 161 nM | 230 nM | 21 nM | 448 nM | 34 nM | 1370 nM | 74 nM | –
14 | CN(C)C(=O)[C@H]1Cc2c([nH]c3ccccc23)[C@H](c2ccc([Si](C)(C)C)cc2)N1C(=O)CCl [Example 67] | – | – | – | – | – | – | – | – | – | – | – | – | – | IC50 (MiaPaCa-2): 805 nM; concentration at 0.5 h ([2]; individual mice): 90.6 ng/mL; concentration at 1 h ([2]; individual mice): 38.7 ng/mL; concentration at 4 h ([2]; individual mice): 16.6 ng/mL; concentration at 0.5 h ([2]; Mean, mean of 3 mice): 112 ng/mL; concentration at 1 h ([2]; Mean, mean of 3 mice): 51.7 ng/mL; concentration at 2 h ([2]; Mean, 2 h, mean of 3 mice): 20.2 ng/mL; concentration at 4 h ([2]; Mean, mean of 3 mice): 14.4 ng/mL
